Data as given in EP0241291B1, “Aryl-substituted naphthyridine and pyridopyrazine derivatives” (SCHERING CORPORATION, priority 1986, dated 1987).

What was measured:
[1] = system: Reversed Passive Arthus Response; assay: Reversed Passive Arthus Response (RPAR), paw volume; format: in vivo, Male Lewis inbred albino rats; conditions: 25 mg/kg p.o. once daily for 3 days, rats; for Percent Inhibition vs. Control at 2 hrs.: paw volume 2 hours post-challenge; for Percent Inhibition vs. Control at 4 hrs.: paw volume 4 hours post-challenge
Excerpt: The compounds of this invention are also useful for the treatment of inflammation. Thus, they are useful in the treatment of arthritis, bursitis, tendonitis, gout and other physical conditions characterized by inflammation.
Reversed Passive Arthus Response (RPAR) Animals, Materials and Methods
Male Lewis inbred albino rats weighing 180-200 grams obtained from Charles River Breeding Laboratories are used in these experiments. The rats are housed 3 animals/cage and food and water are allowed ad libitum. The animals are numbered 1-3 in each cage and color marked for identification purposes.
All reagents and drugs are prepared just prior to the study. Crystallized and lyophilized bovine serum albumin (BSA), available from Sigma Chemical Company, is solubilized without shaking in cold, sterile, pyrogenfree saline (10 mg/ml). Lyophilized anti-bovine serum albumin (IgG fraction), obtained from Cappel Laboratories, is suspended in sterile distilled water and diluted with cold, pyrogen-free saline (PFS) just prior to use. The final concentration of anti-bovine serum albumin is 0.5. mg/ml of PFS. Both BSA and anti-BSA solutions are iced during use. Drugs are suspended or solubilized in an aqueous solution of methyl cellulose (MC) with an homogenizer just prior to administration.
Groups of animals (6/group) are dosed with drug in MC by gavage once daily for 3 days. The last dose is administered one hour prior to sensitization with BSA. Controls are given MC alone and a drug-standard is usually included in each assay for verification purposes. Drugs are prepared and diluted so as to provide a dose for a 200 gram animal which is equivalent to the mg/kg dose for each experiment. Thus each rat receives an oral dose in a volume of approximately 2.0 cc. One hour after the last dose the animals are lightly anesthetized with ether and "sensitized" by injection of 0.2 ml of PFS containing 1.0 mg of BSA into the penile vein. One hour later, the animals are "challenged" in the right rear paw with subplantar injections of […] PFS containing 0.1 mg of anti-BSA. Immediately after the subplantar injection, the right paw is dipped (up to the lateral maleolus) into the mercury well of a plethysmograph. The volume of mercury displaced is converted to weight and recorded. This value is considered to be the control reading for the animal. Paw volumes are subsequently recorded with a plethysmograph during the development of the inflammation at 2 and 4 hours post-challenge.
Results are expressed by the change in paw volume (Δ paw volume) from the control reading for each animal to that recorded 2 and 4 hours post-challenge. All drug treated groups are compared to the MC control for significant differences with an analysis of variance. Differences from control in drug-treated groups are expressed as percent change from control in Table II.

[2] = system: anaphylactic bronchospasm in sensitized guinea pigs; assay: Inhibition of anaphylactic bronchospasm in sensitized guinea pigs with antigen-induced bronchoconstriction; format: in vivo, male Hartley guinea pigs; conditions: Cavia porcellus, po; for ED50: 2 hours before challenge with ovalbumin, sensitized guinea pigs, read-out: ED50 (p.o.)-in anaphylactic bronchospasm test
Protocol: The compounds of this invention may be employed as anti-allergy agents in the treatment of, for example, asthma, allergic or seasonal rhinitis, and/or chronic bronchitis. The anti-allergy method of this invention is identified by tests which measure a compound's inhibition of anaphylactic bronchospasm in sensitized guinea pigs having antigen induced broncho-constriction.
In one such test procedure, male Hartley guinea pigs (250-300 g) are sensitized with 5 mg ovalbumin injected i.p. and 5 mg injected s.c. in 1 ml saline on day 1 and 5 mg ovalbumin injected i.p. on day 4. The sensitized animals are used 3-4 weeks later at which time they weigh 450-500 g.
The sensitized guinea pigs are fasted overnight and the following morning are anesthetized with 0.9 ml/kg i.p. of dialurethane (0.1 g/ml diallybarbituric acid, 0.4 g/ml ethylurea and 0.4 g/ml urethane). The trachea are cannulated and the animals are ventilated by a Harvard® rodent respirator at 50 strokes/minute with a stroke volume of 5 ml. A side arm to the tracheal cannula is connected to a pressure transducer (Harvard) to obtain a continuous measure of intratracheal pressure which is recorded on a polygraph (Harvard). The jugular vein is cannulated for the i.v. administration of substances. The animals are challenged with antigen (0.5% ovalbumin) as an aerosol generated from a DeVilbiss® Model 65 ultrasonic nebulizer and delivered through the tracheal cannula for 30 seconds. Bronchoconstriction is measured as the peak increase in intratracheal pressure occurring within 5 minutes after antigen challenge.
The sensitized guinea pigs are injected i.v. with 1 mg/kg propranolol, 5 mg/kg indomethacin and 2 mg/kg mepyramine given together in a volume of 1 ml/kg. Fifteen minutes later the animals are challenged with nebulized ovalbumin. Test compounds are administered orally 2 hours before challenge with ovalbumin. Suppression of anaphylactic bronchospasm is expressed as a percent inhibition of the peak increase in intratracheal pressure by comparison to a vehicle-treated control group.

[3] = system: reverse passive Arthus reaction in the pleural cavity of rats; assay: Reverse passive Arthus reaction in the pleural cavity; format: in vivo; conditions: Rattus norvegicus, po, method of Myers et al., read-out: ED₅₀ reverse passive Arthus reaction in the pleural cavity
spleen weight = assay: Splenic atrophy test, decrease in spleen weight; format: in vivo; conditions: BDF₁ mice
Protocol: The immunosuppressive activity of the compounds may also be shown by a decrease in spleen weight after dosing BDF₁ mice orally with the drug for seven (7) consecutive days. The mice are sacrificed on the eighth day. The percent decrease in spleen weight is measured for each dosage level. In this procedure (Compound A) provided a 30% spleen weight decrease at a dosage level of 100 mg/kg.

[4] = system: GRAFT VS. HOST REACTION (GVHR); assay: Graft vs. host reaction (GVHR), spleen weight; format: in vivo, C57 B1/6XA/J(B6AF1) male mice; conditions: 10 mg/kg orally for 10 days; GVHR mice
Protocol: To induce a GVHR, C57 B1/6XA/J(B6AF1) male mice were injected intravenously with parental (C57B1/6J) spleen and lymph node cells. The compound 1,2,3,4-tetrahydro-7-phenyl-oxepino[2,3-c][1,8]-naphthyridin-6(7H)-one (Compound A) was then administered orally for 10 days beginning on the day prior to the cell transfer. On the day following the last treatment, the animals were sacrificed, and their spleens were excised and weighed. The enlargement of the spleen of the host is a result of a GVHR. To some extent it is the host's own cells which infiltrate and enlarge the spleen although they do this because of the presence of graft cells reacting against the host. The amount of spleen enlargement, splenonmegaly, is taken as a measure of the severity of the GVHR.
In carrying out the GVHR the animal in the experimental group is injected with parental cells, cells of the same species but of different genotyne, which cause a weight increase of the spleen. […] The effectiveness of Compound A adminstered to the mice in the experimental group is measured by comparing the spleen weight of the untreated and treated GVH animal with that of the syngeneic control. Compound A reduced spleen weight by 61% as compared to the untreated animals at a dose of 10 mg/kg.

Compound | Percent Inhibition vs. Control at 2 hrs. [1] [%] | Percent Inhibition vs. Control at 4 hrs. [1] [%] | ED50 [2] [mg/kg] | ED50 [3] [mg/kg] | spleen weight decrease (spleen weight; 100 mg/kg orally for seven consecutive days) [%] | ED30 (spleen weight; Mus musculus, oral, seven consecutive days, read-out: ED₃₀ in the splenic atrophy test) [mg/kg] | reduced spleen weight as compared to the untreated animals [4] [%] | ED30 ([2]; sensitized guinea pigs having antigen-induced bronchoconstriction, read-out: ED₃₀ inhibition of anaphylactic bronchospasm) [mg/kg]
O=c1c2c(c3cccnc3n1-c1cccc(Cl)c1)CCCC2 [Compound 1, 5-(3-Chlorophenyl)-7,8,9,10-tetrahydro-benzo[c][1,8]-naphthyridin-6(5H)-one] | 64 | 30 | 2 |  |  |  |  | 
O=c1c2c(c3cccnc3n1-c1cccc(Cl)c1)CCCCO2 [Compound 3, 7-(3-Chlorophenyl)-1,2,3,4-tetrahydro-oxepino[2,3-c][1,8]-naphthyridin-6(7H)-one] |  |  | 5 |  |  |  |  | 
O=c1c2c(c3cccnc3n1-c1ccccc1)CCCCO2 [Compound 4, 1,2,3,4-tetrahydro-7-phenyl-oxepino[2,3-c][1,8]-naphthyridin-6(7H)-one] | 74 | 25 | 1 | ~4.5 | 30 | ~100 | 61 | ~0.5
O=c1c2c(c3cccnc3n1-c1ccccc1)CCCC2 [Compound 2, 7,8,9,10-Tetrahydro-5-phenyl-benzo[c][1,8]-naphthyridin-6-(5H)-one] | 75 | 29 | 2 |  |  |  |  | 
